Where “and” joins values, the source holds several entries; their conditions need not be identical. Identical values can stand only once.
The molecules below were run against Replicase polyprotein 1ab (Severe acute respiratory syndrome coronavirus 2, UniProt P0DTD1) (assay: Functional biochemical assay to identify treatments for viral infectious disease that targets SARS-COV-2 nsp3 macrodomain, whereby the mechanism of action displaces an ADP-Ribose modified peptide from the binding site. Utilizing a time-resolved fluorescence method to measure binding by reading the emitted fluorescence intensity in two wavelengths.).

| Compound | IC50 |
| --- | --- |
| c1nc(-c2ccc3c(c2)OCO3)c2cc[nH]c2n1 | > 99.5 µM |
| CCOC(=O)C1=C(Nc2cc(C)cc(C)c2)OCC1=O | > 99.5 µM |
| O=C(O)C[C@@H](NC(=O)c1ccnc2ncccc12)c1ccc(Br)cc1 | 87.9 µM and 92.8 µM |
| O=C(Nc1cccc2c(C(=O)N[C@@H](C(=O)O)c3ccc4c(c3)OCCO4)c[nH]c12)NC1CC1 | > 99.5 µM |
| Cc1ccc(C(=O)Nc2ncnc3[nH]c(C)c(C)c23)cn1 | > 99.5 µM |
| O=C(O)C[C@@H](NC(=O)c1ncnc2[nH]ccc12)c1ccc(NCC2C[C@@H](O)[C@@H](O)C2)cc1 (some centres undefined) | 25 µM and 27.5 µM |
| Cn1cc([C@@H](NC(=O)c2c[nH]c3c(NC(=O)NC4CC4)cccc23)C2CCC2)cn1 | > 99.5 µM |
| NS(=O)(=O)C[C@@H](NC(=O)c1ncnc2[nH]ccc12)c1ccc(Br)cc1 | > 99.5 µM |
| Cc1nnc(N[C@@H](c2ccc3c(c2)OCCO3)C(C)C)c2ccccc12 | > 99.5 µM |
| O=C(O)C[C@@H](NC(=O)c1cccc2cc[nH]c12)c1ccc(Br)cc1 | > 99.5 µM |
| O=C(NCc1nc(-c2cc3c(N4CCCC5(CC5)C4)ncnc3[nH]2)c[nH]1)c1ccc(F)nc1 | 24.8 µM and 20.8 µM |
| COCc1cc(CNc2ccc([C@@H](CC(=O)O)NC(=O)c3ncnc4[nH]ccc34)cc2)on1 | 10.6 µM and 12.4 µM |
| Cc1[nH]c2ncnc(NC(=O)c3ccc(Cl)nn3)c2c1C | > 99.5 µM |
| CC(C)n1nccc1S(=O)(=O)Nc1cnc2[nH]ccc2c1 | > 99.5 µM |
| Cc1[nH]c2ncnc(NC(=O)c3ccnnc3)c2c1C | > 99.5 µM |
| Cc1[nH]c2ncnc(NC(=O)c3cccc(Cl)n3)c2c1C | > 99.5 µM |
| Cc1[nH]c2ncnc(NC(=O)c3cccnn3)c2c1C | > 99.5 µM |
| Cc1[nH]c2ncnc(NC(=O)c3ccc(-n4cccn4)nc3)c2c1C | > 99.5 µM |
| COc1ccc2c(NC(=O)c3ccc(NC(=O)NC4CC4)cc3)c(C(=O)O)sc2c1 | > 99.5 µM |
| Cc1[nH]c2ncnc(NC(=O)Cc3ccc(Cl)nc3)c2c1C | > 99.5 µM |
| O=C(O)C[C@@H](CNC(=O)c1ncnc2[nH]ccc12)c1ccc(Cl)cc1 | 65.3 µM and 71.3 µM |
| Cc1[nH]c2ncnc(NC(=O)c3cncnc3)c2c1C | > 99.5 µM |
| COC(=O)C[C@@H](NC(=O)c1ncnc2[nH]ccc12)c1ccc(Br)cc1 | > 99.5 µM |
| COCc1cc(CNc2ccc([C@@H](CC(=O)O)NC(=O)c3c[nH]c4ncncc34)cc2)on1 | > 99.5 µM |
| Cc1[nH]c2ncnc(NC(=O)c3ccc(N(C)C)nc3)c2c1C | > 99.5 µM |
| Cc1cc2c(C(=O)N[C@@H](CC(=O)O)c3ccc(Br)cc3)cccc2[nH]1 | > 99.5 µM |

| Compound | IC50 |
| --- | --- |
| COc1ccc(S(=O)(=O)Nc2cnc3[nH]ccc3c2)cc1C(N)=O | > 99.5 µM |
| O=C(O)C[C@@H](NC(=O)c1ccnc2cn[nH]c12)c1ccc(Br)cc1 | 10.3 µM and 9.53 µM |
| O=C(O)C[C@@H](NC(=O)c1cccc2[nH]cnc12)c1ccc(Br)cc1 | 39.2 µM and 40.3 µM |
| CC(C)[C@@H](NC(=O)c1c[nH]c2c(NC(=O)NC3CC3)cccc12)C(F)F | > 99.5 µM |
| CN(C)c1ccc(C(=O)N[C@@H](CC(=O)O)c2ccc(Br)cc2)nc1 | > 99.5 µM |
| CC(C)[C@@H](Cc1ccc(F)cc1)NC(=O)c1ncnc2[nH]ccc12 | > 99.5 µM |
| O=C(O)C[C@@H](NC(=O)Cc1c[nH]c2ncccc12)c1ccc(Br)cc1 | > 99.5 µM |
| O=C(NCSC[C@@H](NC(=O)c1ncnc2[nH]ccc12)C(=O)O)c1ccccc1 | > 99.5 µM |
| Cc1[nH]c2ncnc(NC(=O)c3ccc(C(F)(F)F)nc3)c2c1C | > 99.5 µM |
| O=S(=O)(Cc1ccccc1F)Nc1cnc2[nH]ccc2c1 | > 99.5 µM |
| NC(=O)C[C@@H](NC(=O)c1ncnc2[nH]ccc12)C1CCCCC1 | > 99.5 µM |
| COc1ccc(C(=O)N2CCC(c3ccn4ncc(C(=O)N[C@@H]5CCC[C@@H]5C(=O)O)c4c3)CC2)cc1 | 20.2 µM and 24.6 µM |
| O=C(O)C[C@@H](NC(=O)c1ccnc(-n2cccc2)c1)c1ccc(Br)cc1 | > 99.5 µM |
| COc1cc(Nc2ccc([C@@H](CC(=O)O)NC(=O)c3ncnc4[nH]ccc34)cc2)n[nH]1 | 7.57 µM and 7.27 µM |
| Cc1[nH]c2ncnc(NC(=O)c3cccnc3)c2c1C | > 99.5 µM |
| CC(C)[C@@H](Nc1ncnc2c1ccn2C)c1ccc2c(c1)OCCO2 | > 99.5 µM |
| O=C(O)C[C@@H](NC(=O)c1nccc2[nH]ncc12)c1ccc(Br)cc1 | 24.7 µM and 24.2 µM |
| COC[C@@H]1C[C@@H]1CNc1ccc([C@@H](CC(=O)O)NC(=O)c2ncnc3[nH]ccc23)cc1 | 44.5 µM and 43.9 µM |
| COc1ccc(C(=O)Nc2ncnc3[nH]c(C)c(C)c23)cn1 | > 99.5 µM |
| Cc1[nH]c2ncnc(NC(=O)[C@@H]3Cc4ccccc4CO3)c2c1C | > 99.5 µM |
| CNS(=O)(=O)C[C@@H](NC(=O)c1ncnc2[nH]ccc12)c1ccc(Br)cc1 | > 99.5 µM |
| CC(C)[C@@H](CO)NC(=O)c1c[nH]c2c(NC(=O)NC3CC3)cccc12 | > 99.5 µM |
| Cc1[nH]c2ncnc(NC(=O)c3ccc(C#N)nc3)c2c1C | > 99.5 µM |
| Cc1[nH]c2ncnc(NC(=O)c3cnc(Cl)cn3)c2c1C | > 99.5 µM |
| Cc1cc(C)cc(CS(=O)(=O)Nc2cnc3[nH]ccc3c2)c1 | > 99.5 µM |
| CC(C)[C@@H](Nc1nc(C(F)F)nc2ccccc12)c1ccc2c(c1)OCCO2 | > 99.5 µM |

| Compound | IC50 |
| --- | --- |
| Cc1[nH]c2ncnc(NC(=O)c3ccc(-n4cnnc4)cc3)c2c1C | > 99.5 µM |
| Cc1[nH]c2ncnc(NC(=O)[C@@H](CC(F)F)C3CCC3)c2c1C | 8.19 µM and 8.22 µM |
| O=C(O)C[C@@H](NC(=O)c1cccc2[nH]ncc12)c1ccc(Br)cc1 | > 99.5 µM |
| Cc1[nH]c2ncnc(NC(=O)c3ncccc3Cl)c2c1C | 49.3 µM and 60.3 µM |
| Cn1c(C(=O)O)c(NC(=O)c2ccc(NC(=O)NC3CC3)cc2)c2ccccc21 | > 99.5 µM |
| O=C(Nc1ccc(C(=O)Nc2c(C(=O)O)sc3ncccc23)cc1)NC1CC1 | > 99.5 µM |
| O=C(Nc1cccc2c(C(=O)N[C@@H](c3ccccc3)C(F)F)c[nH]c12)NC1CC1 | > 99.5 µM |
| O=C(O)C[C@@H](NC(=O)c1c[nH]c2ncccc12)c1ccc(Br)cc1 | 27.4 µM and 29 µM |
| Cc1ccc(C(=O)N2CCC(c3ccn4ncc(C(=O)N[C@@H]5CCC[C@@H]5C(=O)O)c4c3)CC2)cc1 | 20.7 µM and 21.8 µM |
| O=C(Nc1ccc(C(=O)Nc2c(C(=O)O)sc3cnccc23)cc1)NC1CC1 | > 99.5 µM |
| NC(=O)[C@@H](NC(=O)c1ncnc2[nH]ccc12)c1ccc(F)cc1 | > 99.5 µM |
| COc1ccc([C@@H](CC(=O)O)NC(=O)c2ncnc3[nH]ccc23)cc1 | 2.07 µM and 2.12 µM and 3.68 µM |
| Cc1[nH]c2ncnc(NC(=O)[C@@H]3CCc4c(Cl)cccc43)c2c1C | > 99.5 µM |
| Cc1[nH]c2ncnc(NC(=O)c3cncc(Cl)n3)c2c1C | > 99.5 µM |
| O=C(N[C@@H](Cc1ccc(Br)cc1)C(=O)O)c1ncnc2[nH]ccc12 | > 99.5 µM |
| Cn1ncc2c(C(=O)N[C@@H](CC(=O)O)c3ccc(Br)cc3)ccnc21 | 70.2 µM and 81.7 µM |
| CC(=O)Nc1ccc(C(=O)Nc2ncnc3[nH]c(C)c(C)c23)cc1Cl | > 99.5 µM |
| O=C(Nc1cccc2c(C(=O)N[C@@H](CO)c3ccc4c(c3)OCCO4)c[nH]c12)NC1CC1 | > 99.5 µM |
| Cc1nc2c(C(=O)N[C@@H](CC(=O)O)c3ccc(Br)cc3)ccnc2[nH]1 | 20.6 µM and 20.2 µM |
| CC(C)[C@@H](NCc1ncc[nH]1)c1ccc2c(c1)OCCO2 | > 99.5 µM |
| O=C(O)C[C@@H](NC(=O)c1cncc2[nH]ccc12)c1ccc(Br)cc1 | 35.8 µM and 41.3 µM |
| C[C@@H](O)[C@@H](NC(=O)c1csc2c(NC(=O)NC3CC3)ncnc12)c1ccccc1F | > 99.5 µM |
| Cc1ncc(CCNC(=O)c2csc3c(NC(=O)NC4CC4)ncnc23)s1 | > 99.5 µM |
| COC[C@@H]1C[C@@H]1CNc1ccc([C@@H](CC(=O)O)NC(=O)c2c[nH]c3ncncc23)cc1 | > 99.5 µM |
| Cc1[nH]c2ncnc(NC(=O)c3ccc(S(C)(=O)=O)nc3)c2c1C | > 99.5 µM |
| O=C(Nc1ncnc2c(C(=O)N[C@@H](c3cccs3)C3CCCC3)csc12)NC1CC1 | > 99.5 µM |

| Compound | IC50 |
| --- | --- |
| CC(C)[C@@H](NCc1ccc(-n2cccn2)cc1)c1ccc2c(c1)OCCO2 | > 99.5 µM |
| Cc1[nH]c2ncnc(NC(=O)Cc3cn[nH]c3)c2c1C | 75.2 µM and 99 µM |
| O=C(Nc1ccc(C(=O)Nc2c(C(=O)O)[nH]c3ccccc23)cc1)NC1CC1 | > 99.5 µM |
| CC(C)[C@@H](Nc1ncnc2ncccc12)c1ccc2c(c1)OCCO2 | > 99.5 µM |
| NC(=O)C[C@H](NC(=O)c1ncnc2[nH]ccc12)c1ccc(Cl)cc1 | > 99.5 µM |
| Cc1[nH]c2ncnc(NC(=O)c3ccc(Cl)cn3)c2c1C | > 99.5 µM |
| CC(C)[C@@H](Nc1ncnc2ccccc12)c1ccc2c(c1)OCCO2 | 58.3 µM and 59.9 µM |
| CC(C)[C@@H](NCc1ccc(-n2ccnc2)cc1)c1ccc2c(c1)OCCO2 | > 99.5 µM |
| O=C(N[C@@H](CO)Cc1ccncc1)c1ncnc2[nH]ccc12 | > 99.5 µM |
| O=C(O)C[C@@H](NC(=O)c1cc2[nH]ccc2cn1)c1ccc(Br)cc1 | 6.82 µM and 7.54 µM |
| O=C(Nc1cccc2c(C(=O)N[C@@H]3c4ccccc4C[C@@H]3C(=O)O)c[nH]c12)NC1CC1 | 3.47 µM and 3.78 µM and 2.28 µM and 1.85 µM |
| c1nc(N2CCC[C@@H](Nc3ccc4c(c3)OCCO4)C2)c2cc[nH]c2n1 | > 99.5 µM |
| CC(C)[C@@H](NC(=O)c1ccnc2ccccc12)c1ccc2c(c1)OCCO2 | > 99.5 µM |
| O=C(O)C[C@@H](NC(=O)c1ccc2[nH]ccc2n1)c1ccc(Br)cc1 | 41.2 µM and 38.3 µM |
| CCc1coc(Nc2ccc([C@@H](CC(=O)O)NC(=O)c3ncnc4[nH]ccc34)cc2)n1 | 13.9 µM and 15.5 µM |
| Cc1[nH]c2ncnc(NC(=O)[C@@H]3CCCc4ncccc43)c2c1C | > 99.5 µM |
| O=C(N[C@@H](C(=O)O)c1ccc(Br)cc1)c1ncnc2[nH]ccc12 | 52.1 µM and 62.9 µM |
| O=C(O)C[C@@H](NC(=O)c1nccc2cc[nH]c12)c1ccc(Br)cc1 | 29.6 µM and 31.2 µM |
| Cn1ccc2c(C(=O)N[C@@H](CC(=O)O)c3ccc(Br)cc3)ccnc21 | 36.6 µM and 33.2 µM |
| Cc1[nH]c2ncnc(NC(=O)c3cc(Cl)ccn3)c2c1C | > 99.5 µM |
| C[C@@H](c1ccc(F)c(F)c1)N(C)C(=O)c1ncnc2[nH]ccc12 | > 99.5 µM |
| O=C(N[C@@H]1CCC[C@@H]1C(=O)O)c1cnn2ccc(C3CCN(C(=O)c4ccc(Cl)c(Cl)c4)CC3)cc12 | 38 µM and 40.8 µM |
| Cc1[nH]c2ncnc(NC(=O)C3(c4ccc(F)cc4)CCC3)c2c1C | 19.5 µM and 21.8 µM |
| CC(C)[C@@H](NCc1cccc2[nH]ccc12)c1ccc2c(c1)OCCO2 | > 99.5 µM |
| Cc1[nH]c2ncnc(C(=O)Nc3ccnc(Cl)c3)c2c1C | > 99.5 µM |
| O=C(O)C[C@@H](NC(=O)c1cnc2[nH]ccc2c1)c1ccc(Br)cc1 | > 99.5 µM |
